Data set [1] concerns Zucker Diabetic Fatty rats (ZDF fa/fa). Kind of data set: Diabetic rat study, 28-day. It is filed as in vivo. Also on record: total serum protein: unit not given here. Conditions: for glycemic control / insulin: 28-day treatment, relative to vehicle treatment; for hematocrit (% RBC volume): vehicle 49±0.3; for hemodilution as indicated by hematocrit and total serum protein: day 28, versus vehicle group. How it is done:
The five PPAR pan agonist molecules prepared above were administered by oral gavage to genetically altered rodents that simulate the human disease of type 2 Diabetes Mellitus (Zucker Diabetic Fatty rats (ZDF fa/fa)). As a control a PPAR gamma agonist 2-[2-(methoxycarbonyl)anilino]-3-{4-[2-(5-methyl-2-phenyl-1,3-oxazol-4-yl)ethoxy]phenyl}propanoic acid was also tested. This PPAR gamma agonist can be prepared as described in Cobb, J. E., et al., N-(2-Benzoylphenyl)-L-tyrosine PPARg agonists. 3. Structure-activity relationship and optimization of the N-aryl substituent., J. Med. Chem. 1998, 41, 5055-5069. As an additional control, one group was treated with vehicle alone.
While all five hPPAR pan agonist molecules were evaluated in the above study for 7 days, one of these pan agonists, 2-{4-[({4-{[4-(4-methoxyphenyl)-1-piperazinyl]methyl}-2-[4-(triflouromethyl)phenyl]-1,3-thiazol-5-yl}methyl)sulfanyl]phenoxy}-2-methylpropanoic acid, and the PPAR gamma agonist were tested for 28 days. Animals were treated earlier than in the 7-day study, before the development of diabetes as measured by increased plasma glucose. Measurements were obtained at 7 day intervals and the PPAR pan agonist molecule (♦) was compared to vehicle control (*) and the PPAR gamma agonist (□). [formula] [formula] [formula]

For another data set, the system named is Cynomolgus monkeys. Description: Primate study, edema and hemodilution. It is filed as in vivo, Cynomolgus monkey. Conditions: oral once daily for 63 or 64 days, 1, 5 and 15 mg/kg. How it is done: In addition to the above rat studies, a primate study was conducted using the PPAR pan agonist 2-{4-[({4-{[4-(4-methoxyphenyl)-1-piperazinyl]methyl}-2-[4-(trifluoromethyl)phenyl]-1,3-thiazol-5-yl}methyl)sulfanyl]phenoxy}-2-methylpropanoic acid. In that study, male and female Cynomolgus monkeys were dosed orally once daily for 63 or 64 days with doses projected to provide greater than 3× the serum concentration needed to lower insulin resistance and serum glucose in diabetic patients. The animals were dosed at 0 mg/kg (control), 1 mg/kg, 5 mg/kg, and 15 mg/kg of the PPAR pan agonist. The animals were carefully observed for signs of edema and or hemodilution. Methods of evaluation during the in-life portion of the study included visual observation of swelling, particularly around the eyes and or genitals by a Board Certified pathologist, as well as evaluation of clinical hematology (red blood cell volume) and clinical chemistries (total serum protein) as evidence of hemodilution. At necropsy, careful examination for gross evidence of edema was based on palpation and careful examination of all issue. Special emphasis was given to the gross evaluation of subcutaneous tissue, all fat stores, lungs and all serous cavities.

Consider `COC(=O)c1ccccc1NC(Cc1ccc(OCCc2nc(-c3ccccc3)oc2C)cc1)C(=O)O` (stereo not shown) [PPAR gamma agonist, 2-[2-(methoxycarbonyl)anilino]-3-{4-[2-(5-methyl-2-phenyl-1,3-oxazol-4-yl)ethoxy]phenyl}propanoic acid, reference compound], for which the “body weight increase from the start of dosing” value in data set [1] (28-day study) stood at 120%. Moreover, in data set [1], the glycemic control result is recorded as “maintained glycemic control”; the insulin entry is given as “lowered insulin”; the “hemodilution as indicated by hematocrit and total serum protein” value is “evident”. In addition, the “hematocrit (% RBC volume)” value in data set [1] (after 28 days) was 43±1.0 % RBC volume.

As for `COc1ccc(N2CCN(Cc3nc(-c4ccc(C(F)(F)F)cc4)sc3CSc3ccc(OC(C)(C)C(=O)O)cc3)CC2)cc1` [PPAR pan agonist, 2-{4-[({4-{[4-(4-Methoxyphenyl)-1-piperazinyl]methyl}-2-[4-(trifluoromethyl)phenyl]-1,3-thiazol-5-yl}methyl)sulfanyl]phenoxy}-2-methylpropanoic acid], in data set [1] (28-day study), the “body weight gain compared with vehicle treated animals” value was “not significantly different from the vehicle treated animals”. Moreover, in data set [1], the glycemic control entry is on record as “maintained glycemic control”; the insulin entry is listed as “lowered insulin”; the “hemodilution as indicated by hematocrit and total serum protein” value is on record as “not significantly different from the vehicle group”. In data set [1] (after 28 days, vehicle 7.5±0.2), this molecule yielded a total serum protein of 7.2±0.2. Further, the “hematocrit (% RBC volume)” value in data set [1] (after 28 days) stood at 48±0.9 % RBC volume. For the same molecule, in the data set on Cynomolgus monkeys, the “edema in tissues examined histologically” value is given as “No evidence of edema” and the “signs of edema or hemodilution during in-life or necropsy portions” value is reported as “no signs or suggestions of edema or hemodilution”.
